Data on one compound can be found in PubChem BioAssay AID588539 (The Scripps Research Institute Molecular Screening Center, 2011).

The assay is described as follows: subG1, G1, S, G2/M shifts, DLD-1 – cell-based, flow cytometry, propidium iodide, powder samples, counter-screen for KLF5 inhibitor project, late-stage follow-up (AID 588539). Conditions: DLD-1 cell cycle, at 10 µM; for G1 cells: G1 phase fraction; for G2/M cells: G2/M phase fraction; for S cells: S phase fraction; for subG1 cells: stronger effect = higher value.

Each structure is given as a SMILES string.

Turning to `CN(C(=O)COC(=O)/C=C/c1cccc([N+](=O)[O-])c1)C1CCS(=O)(=O)C1` (stereo not drawn), for the setting “24 h”, the G1 cells was found to be 39.4%, the G2/M cells was 34.7%, the S cells stood at 18.3% and the subG1 cells came to 8.03%. Under “48 h”, the G1 cells is 27.6%, the G2/M cells was 57.6%, the S cells is 13% and the subG1 cells is 1.86%.
